Source: US10968169B2, “Urea derivative” (Daiichi Sankyo Company, Limited, priority 2016, dated 2021)
Like-named read-outs stand apart in the source and are kept apart here.

Experiments:
[1] = system: indoxyl sulfate concentration in the plasma; assay: Effect of reducing indoxyl sulfate concentration in the plasma of mice; type: in vivo, male BALB/c mouse; conditions: oral
Procedure: An effect of a tryptophanase inhibitory compound to reduce an indoxyl sulfate concentration in the plasma of a mouse can be evaluated through the following operation.
After fasting a male BALB/c mouse overnight, a tryptophanase compound dissolved or suspended at a concentration of 0.01 to 10 mg/mL in a 0.5% methylcellulose (MC) solution used as a solvent and a 0.5% MC solution are orally administered by gavage at a dose of 10 mL/kg respectively to a test compound group and to a solvent control group. When 30 minutes have elapsed after the administration of the test compound or the solvent, L-tryptophan, that is, a substrate of tryptophanase, is orally administered by gavage at a dose of 1 to 3 g/kg. The L-tryptophan is suspended in a 0.5% tragacanth solution. For 12 hours after the administration of the L-tryptophan, blood is collected over time from a tail vein by using a hematocrit tube. The thus obtained blood is centrifuged at 11,000 rpm for 5 minutes to collect plasma, and the indoxyl sulfate concentration in the plasma is measured singly by liquid chromatography (fluorescence detection) or its combination with a mass spectrometer used subsequently. The indoxyl sulfate concentration in the plasma of the test compound group against the indoxyl sulfate concentration in the plasma of the solvent control group is calculated as, for example, a ratio of the area under a curve of the indoxyl sulfate concentration, and thus, the efficacy of each compound in a living body can be compared.
The indoxyl sulfate concentrations in plasma obtained by using the compounds of the respective examples shown in Table 12 below were measured by the above-described method to evaluate the effect of reducing indoxyl sulfate concentration.

[2] = target: tryptophanase of Bacteroides thetaiotamicron (Bacteroides thetaiotaomicron, UniProt Q8A7N2); assay: Tryptophanase enzyme inhibitory activity (LDH-coupled NADH loss); type: biochemical; conditions: L-tryptophan 10 mM, 37° C., absorbance at 340 nm; read-out: Bacteroides Activity of Inhibiting Tryptophanase (IC50)
Chain of tryptophanase of Bacteroides thetaiotamicron (Q8A7N2 entry or part of it, change not shown): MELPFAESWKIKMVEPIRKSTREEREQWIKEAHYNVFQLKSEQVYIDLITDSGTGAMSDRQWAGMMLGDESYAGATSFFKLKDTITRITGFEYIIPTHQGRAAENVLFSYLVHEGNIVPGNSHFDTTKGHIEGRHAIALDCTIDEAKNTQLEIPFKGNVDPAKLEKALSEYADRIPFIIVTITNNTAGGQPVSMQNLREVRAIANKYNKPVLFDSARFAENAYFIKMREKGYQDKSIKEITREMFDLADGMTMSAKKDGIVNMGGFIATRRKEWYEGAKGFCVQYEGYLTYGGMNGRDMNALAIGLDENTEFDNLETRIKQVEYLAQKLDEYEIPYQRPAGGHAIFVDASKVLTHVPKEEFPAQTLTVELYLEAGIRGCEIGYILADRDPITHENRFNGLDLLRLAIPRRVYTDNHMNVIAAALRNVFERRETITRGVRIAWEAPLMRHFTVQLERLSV
Procedure: Tryptophanase inhibitory activity was evaluated by a method using lactate dehydrogenase (LDH). The reaction time-dependent reduction in NADH conjugated with the enzymatic reaction, with LDH, of pyruvic acid produced through the enzymatic reaction of L-tryptophan as a substrate with tryptophanase, was measured with a spectrophotometer (Phillips-R S et al., Biochemistry, 23, 6228-6234 (1984)). Enzyme inhibitory activity obtained without adding a test compound (by adding DMSO alone) in the presence of tryptophanase was used as a control. As the enzyme, tryptophanase of Bacteroides thetaiotamicron (Genbank accession number: HC914434.1) was used. A test compound solution was prepared by dissolving each test compound in DMSO in an arbitrary concentration (from 30 mM to 30 nM at 10-fold common ratio). LDH, NADH and L-tryptophan were prepared, using distilled water, respectively to concentrations of 80 units/mL, 10 mM and […]. Bacteroides tryptophanase was prepared to 30 mg/mL. A potassium phosphate buffer was used as the buffer. [table] A reaction solution A was dispensed at 284.8 μL per well into a 96-well plate, and the test compound solution was added at 3.2 μL per well to obtain a final concentration of 1/100 (reaction solution B). The reaction solution B was incubated at 37° C. for 30 minutes, L-tryptophan was added thereto at 32 μL per well to obtain a final concentration of 10 mM (reaction solution C), and the enzyme reaction was performed at 37° C. over 30 minutes with absorbance at 340 nm measured for monitoring the NADH loss. Based on the NADH loss, the tryptophanase inhibitory activity of the compound was evaluated. Besides, the following compounds were similarly tested instead of the test compound.

Bacteroides = assay: Indole production suppressing effect in viable bacteria; type: cell-based; conditions: indole concentration in culture supernatant, read-out: Eroides Activity of Inhibiting Indole Production(IC50)
Procedure: The effect of a tryptophanase inhibitory compound to suppress indole production from a viable bacterium can be evaluated through the following operation. When E. coli (Escherichia Coli) is used as a strain known to produce indole, the strain is cultured in an LB medium at 37° C. for 12 to 18 hours under anaerobic conditions, and then, suspended in an assay medium (5 mM L-Tryptophan/PBS(+)/25 mM HEPES (pH8)) in such a manner as to obtain O.D. of about 0.3. When bacteroides is used, the strain is cultured in a modified GAM medium at 37° C. for 12 to 18 hours under anaerobic conditions, and then suspended in an assay medium (5 mM L-Tryptophan/PBS(+)/25 mM HEPES (pH8)) in such a manner as to obtain O.D. of about 1.1. The thus obtained viable bacterial suspension prepared to have a final concentration of a compound of 1 μM to 10 mM is dispensed at 200 μL per well into a 96-well plate and cultured at 37° C. for 2 to 4 hours under anaerobic conditions, and O.D., an ATP concentration (that can be quantitatively determined by using BacTiter-Glo (Promega Corporation)) and an indole concentration in the culture supernatant (that can be quantitatively determined by utilizing Ehrlich reaction) are measured. The effect of the tryptophanase inhibitory compound to suppress indole production from a viable bacterium can be evaluated depending on the degree of lowering of the indole concentration in the culture supernatant. It can be checked whether or not the effect is derived from a function other than tryptophanase inhibition, such as a bactericidal function or a bacterial growth inhibitory function, depending on lowering of the O.D. or reduction in the ATP concentration or by performing a generally practiced antibacterial activity test (a MIC (minimum growth inhibition concentration) test) using levofloxacin or the like as a positive control. The activities of inhibiting indole production of the compounds of the respective examples shown in Table 11 were measured by the above-described method using Bacteroides to evaluate the effect of inhibiting indole production.

Row | IC50 [2] [µM] | SMILES | Indoxyl Sulfate Reduction Effect in Male BALB/c Mouse Plasma (Indoxyl sulfate reduction effect in plasma 6 hours after administering L-tryptophan: ED75−, mg/kg) [1] [mg/kg] | IC50 (Bacteroides) [µM] | IC50 (Bacteroides; Bacteroides) [µM]
1 | 0.6 | CCC(NC(=O)Nc1cccc(C#N)c1)(C(=O)O)C1CC1 (single isomer, unassigned) [(+) Isomer Compound of Example 33, (+)-2-{[(3-Cyanophenyl)carbamoyl]amino}-2-cyclopropylbutanoic acid] | 1 | < 3 | 
2 | 7.7 | CC[C@@](NC(=O)Nc1cccc(C#N)c1)(C(=O)O)C1CC1 [(−) Isomer Compound of Example 33, (−)-2-{[(3-cyanophenyl)carbamoyl]amino}-2-cyclopropylbutanoic acid] | >1 | 9 | 
3 | 20 | CCC(CC)(NC(=O)Nc1ccccc1)C(=O)O [Compound A, 2-ethyl-2-[(phenylcarbamoyl)amino]butanoic acid] | 1 |  | 8
4 | 7.4 | CCC(CC)(NC(=O)Nc1cccc(Cl)c1)C(=O)O [Compound B, 2-{[(3-chlorophenyl)carbamoyl]amino}-2-ethylbutanoic acid] | >1 |  | < 3
5 | 16 | CCC(CC)(NC(=O)Nc1ccc(Cl)cc1)C(=O)O [Compound C, 2-{[(4-chlorophenyl)carbamoyl]amino}-2-ethylbutanoic acid] | >1 |  | 6
6 | 38.1 | CCC(CC)(NC(=O)Nc1ccc(F)cc1)C(=O)O [Compound D, 2-ethyl-2-{[(4-fluorophenyl)carbamoyl]amino}butanoic acid] | 1 |  | 11
7 | 18.9 | CCC(CC)(NC(=O)Nc1cccc(F)c1)C(=O)O [Compound E, 2-ethyl-2-{[(3-fluorophenyl)carbamoyl]amino}butanoic acid] | >1 |  | 7
8 | 16.5 | CCC(CC)(NC(=O)Nc1cccc(C#N)c1)C(=O)O [Compound F, 2-{[(3-cyanophenyl)carbamoyl]amino}-2-ethylbutanoic acid] | 1 |  | 12
9 | 4.7 | CCC(CC)(NC(=O)Nc1ccc(CC#N)cc1)C(=O)O [Compound G, 2-({[4-(cyanomethyl)phenyl]carbamoyl}amino)-2-ethylbutanoic acid] | 1 |  | 8
10 | 34.1 | CCC(CC)(NC(=O)Nc1ccsc1)C(=O)O [Compound H, 2-ethyl-2-[(thiophen-3-ylcarbamoyl)amino]butanoic acid] | 1 |  | 11
11 | 12.8 | CC[C@@](C)(NC(=O)Nc1ccc(OC(F)F)cc1)C(=O)O [Example 8, (−)-N-{[4-(Difluoromethoxy)phenyl]carbamoyl}-D-isovaline] | 1 |  | 7
12 | 13.5 | CC[C@@](C)(NC(=O)Nc1ccc(OC(F)F)c(F)c1)C(=O)O [Example 15, (−)-N-{[4-(Difluoromethoxy)-3-fluorophenyl]carbamoyl}-D-isovaline] | 1 |  | 14
13 | 26.8 | CC[C@@](C)(NC(=O)Nc1ccc(Cl)cc1)C(=O)O [Example 25, (−)-N-[(4-Chlorophenyl)carbamoyl]-D-isovaline] | 1 |  | 23
14 | 6 | CCC(CC)(NC(=O)Nc1csc(Cl)c1)C(=O)O [Example 27, 2-{[(5-Chlorothiophen-3-yl)carbamoyl]amino}-2-ethylbutanoic acid] | 1 |  | 5
15 | 22.1 | CC[C@@](C)(NC(=O)Nc1ccc(Br)cc1)C(=O)O [Example 30, (−)-N-[(4-Bromophenyl)carbamoyl]-D-isovaline] | 1 |  | 14
16 | 7.9 | CC[C@@](C)(NC(=O)Nc1ccc(I)cc1)C(=O)O [Example 31, (−)-N-[(4-Iodophenyl)carbamoyl]-D-isovaline] | 1 |  | < 3
